Source: BindingDB's records for doi:10.1111/cbdd.12539 (Jagiellonian University Medical College, 2015)

Key:
[1] = target: T1, 5-hydroxytryptamine receptor 1A (Homo sapiens, UniProt P08908); assay: Radioligand Binding Assay; settings: 25 °C
T1 sequence (P08908 whole entry): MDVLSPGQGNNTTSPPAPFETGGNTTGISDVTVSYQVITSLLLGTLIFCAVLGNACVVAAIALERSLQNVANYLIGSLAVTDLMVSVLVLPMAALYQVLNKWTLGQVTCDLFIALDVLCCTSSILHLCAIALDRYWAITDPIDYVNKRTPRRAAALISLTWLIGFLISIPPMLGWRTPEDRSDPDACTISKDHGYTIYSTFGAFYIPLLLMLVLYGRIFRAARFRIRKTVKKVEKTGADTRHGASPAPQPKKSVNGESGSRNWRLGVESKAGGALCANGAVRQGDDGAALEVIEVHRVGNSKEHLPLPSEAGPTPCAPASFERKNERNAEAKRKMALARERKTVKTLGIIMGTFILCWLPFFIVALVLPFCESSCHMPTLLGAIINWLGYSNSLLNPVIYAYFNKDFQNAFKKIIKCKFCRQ
Protocol: All assays were incubated in a total volume of […] in 96-well microtiter plates for 1 h at 37 °C, except for 5-HT1ARs which were incubated at room temperature for 1 h. The process of equilibration was terminated by rapidfiltration through Unifilter plates with a 96-well cell harvester and radioactivity retained on the filters was quantified on a Microbeta plate reader.

[2] = target: 5-hydroxytryptamine receptor 7 (Homo sapiens, UniProt P34969); assay: Radioligand Binding Assay; settings: 25 °C
Sequence of 5-hydroxytryptamine receptor 7 (P34969 whole entry): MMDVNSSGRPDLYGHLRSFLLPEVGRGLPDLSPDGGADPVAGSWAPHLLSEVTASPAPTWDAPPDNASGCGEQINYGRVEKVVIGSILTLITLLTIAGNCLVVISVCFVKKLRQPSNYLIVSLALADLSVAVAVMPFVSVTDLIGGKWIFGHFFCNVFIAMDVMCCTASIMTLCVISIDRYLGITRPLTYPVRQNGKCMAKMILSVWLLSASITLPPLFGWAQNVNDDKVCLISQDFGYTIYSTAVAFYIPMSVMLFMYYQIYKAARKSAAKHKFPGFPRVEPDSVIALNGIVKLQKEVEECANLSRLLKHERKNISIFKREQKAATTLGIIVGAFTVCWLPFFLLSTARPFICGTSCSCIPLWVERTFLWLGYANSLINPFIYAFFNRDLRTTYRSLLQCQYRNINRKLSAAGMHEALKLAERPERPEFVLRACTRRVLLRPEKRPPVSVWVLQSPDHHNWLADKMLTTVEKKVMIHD

O=C1NN=C(c2ccccc2)NC1CCCCN1CCN(c2ccccc2F)CC1 (stereo not given) [5-{4-[4-(2-Fluorophenyl)piperazin-1-yl]butyl}-3-phenyl-4,5-dihydro-1,2,4-triazin-6(1H)-one (14)]
Ki [1]: 119 nM | Ki [2]: 100 nM

O=C1NN=C(c2ccccc2Cl)NC1CCCCN1CCN(c2ccccc2F)CC1 (stereo not given) [3-(2-Chlorophenyl)-5-{4-[4-(2-fluorophenyl)piperazin-1-yl]butyl}-4,5-dihydro-1,2,4-triazin-6(1H)-one (17)]
Ki [1]: 37 nM | Ki [2]: 91 nM

O=C1NN=C(c2ccccc2)NC1CCCCN1CCN(c2cccc(Cl)c2Cl)CC1 (stereo not given) [5-{4-[4-(2,3-Dichlorophenyl)piperazin-1-yl]butyl}-3-phenyl-4,5-dihydro-1,2,4-triazin-6(1H)-one (16)]
Ki [1]: 70 nM | Ki [2]: 16 nM

O=C1NN=C(C2CCCCC2)NC1CCCCN1CCN(c2cccc(Cl)c2Cl)CC1 (stereo not given) [3-Cyclohexyl-5-{4-[4-(2,3-dichlorophenyl)piperazin-1-yl]butyl}-4,5-dihydro-1,2,4-triazin-6(1H)-one (20)]
Ki [1]: 32 nM | Ki [2]: 5 nM

COc1ccccc1N1CCN(CCCCC2NC(c3ccccc3)=NNC2=O)CC1 (stereo not given) [5-{4-[4-(2-Methoxyphenyl)piperazin-1-yl]butyl}-3-phenyl-4,5-dihydro-1,2,4-triazin-6(1H)-one (12)]
Ki [1]: 9 nM | Ki [2]: 27 nM

O=C1NN=C(c2ccccc2)NC1CCCCN1CCN(c2ccc(Cl)cc2)CC1 (stereo not given) [5-{4-[4-(4-Chlorophenyl)piperazin-1-yl]butyl}-3-phenyl-4,5-dihydro-1,2,4-triazin-6(1H)-one (15)]
Ki [1]: 698 nM | Ki [2]: 79 nM

COc1ccccc1N1CCN(CCCCC2NC(C3CCCCC3)=NNC2=O)CC1 (stereo not given) [3-Cyclohexyl-5-{4-[4-(2-methoxyphenyl)piperazin-1-yl]butyl}-4,5-dihydro-1,2,4-triazin-6(1H)-one (18)]
Ki [1]: 5 nM | Ki [2]: 20 nM

CSc1ccccc1N1CCN(CCCCC2NC(C3CCCCC3)=NNC2=O)CC1 (stereo not given) [3-Cyclohexyl-5-{4-[4-(2-(methylthio)phenyl)piperazin-1-yl]butyl}-4,5-dihydro-1,2,4-triazin-6(1H)-one (19)]
Ki [1]: 14 nM | Ki [2]: 6 nM

O=C1NN=C(c2ccccc2)NC1CCCCN1CCN(c2ccccc2)CC1 (stereo not given) [3-Phenyl-5-[4-(4-phenylpiperazin-1-yl)butyl]-4,5-dihydro-1,2,4-triazin-6(1H)-one (11)]
Ki [1]: 79 nM | Ki [2]: 95 nM

CSc1ccccc1N1CCN(CCCCC2NC(c3ccccc3)=NNC2=O)CC1 (stereo not given) [5-{4-[4-(2-(Methylthio)phenyl)piperazin-1-yl]butyl}-3-phenyl-4,5-dihydro-1,2,4-triazin-6(1H)-one (13)]
Ki [1]: 28 nM | Ki [2]: 17 nM
